Drawing on ChEMBL document CHEMBL5576062 (Bioorg Med Chem Lett, 2024), this text covers IC50 and Activity for 24 compounds.

SMILES strings stand for the structures. Active and inactive are the calls of the source. No cut-off for these calls is given here.

A word on the IC50: it is the point on the concentration scale where inhibition reaches its midpoint.

One experiment concerns the target T1, Histone deacetylase 8 (Homo sapiens, UniProt Q9BY41).
T1 sequence (Q9BY41 whole entry): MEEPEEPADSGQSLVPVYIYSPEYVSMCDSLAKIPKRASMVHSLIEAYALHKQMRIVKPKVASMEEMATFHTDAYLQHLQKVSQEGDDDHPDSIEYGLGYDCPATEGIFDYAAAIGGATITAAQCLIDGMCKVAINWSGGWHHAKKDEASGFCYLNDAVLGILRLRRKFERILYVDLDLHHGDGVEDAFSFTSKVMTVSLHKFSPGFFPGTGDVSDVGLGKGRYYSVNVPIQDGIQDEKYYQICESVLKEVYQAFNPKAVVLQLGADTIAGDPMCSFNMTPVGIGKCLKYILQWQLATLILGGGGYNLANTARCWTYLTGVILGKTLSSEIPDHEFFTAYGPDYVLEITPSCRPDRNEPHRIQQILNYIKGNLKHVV
Kind of experiment: Inhibition of HDAC8 (unknown origin) by SAMDI high throughput mass spectrometry.
`COc1ccc(Cn2ccc3ccc(NC(=O)c4ccccc4O)cc32)cc1`: half-maximal inhibition (IC50) required 360 µM.
`COc1ccc(Cn2ccc3ccc(C(=O)Nc4ccccc4O)cc32)cc1` returned a half-inhibitory concentration (IC50) of 220 µM. This IC50 lies about 1.6-fold lower than the previous one.
Still for that read-out and setting: to `COc1ccc(Cn2ccc3ccc(C(=O)C(F)(F)F)cc32)cc1` belongs 570 µM; to `CCC(=O)c1ccc2ccn(Cc3ccc(OC)cc3)c2c1`, 120 µM.
Consider `NC(Cc1ccc(Cl)cc1Cl)C(=O)N1Cc2ccccc2C1` (stereo not given), for which the midpoint of inhibition, the IC50, lay at 7.9 µM. Compared with the last compound, the IC50 is about 15-fold lower.
Regarding `CCC(=O)Cc1ccc2ccn(Cc3ccc(OC)cc3)c2c1`, the IC50 was 240 µM.
On the same count and under the same terms, to `COc1ccc(Cn2ccc3ccc(C(=O)c4cc(C)on4)cc32)cc1` belongs 200 µM.
Compound `COc1ccc(Cn2ccc3ccc(C(=O)NCC(C)O)cc32)cc1` (stereo not given) yielded an IC50 of 890 µM.
On the same count and under the same terms, to `COc1ccc(Cn2ccc3ccc(NC(=O)c4ccccc4N)cc32)cc1` belongs 130 µM; to `COc1ccc(Cn2ccc3ccc(C(=O)NS(=O)(=O)N(C)C)cc32)cc1`, 320 µM; to `COc1ccc(Cn2ccc3ccc(-c4noc(=S)[nH]4)cc32)cc1`, 330 µM.
On the same count and under the same terms, to `COc1ccc(Cn2ccc3ccc(-c4noc(C(F)(F)F)n4)cc32)cc1` belongs above 1000 µM; to `COc1ccc(Cn2ccc3ccc(NC(=O)c4ccccc4SC)cc32)cc1`, 340 µM; to `COc1ccc(Cn2ccc3ccc(/C(N)=N/O)cc32)cc1`, 340 µM.
On the same count and under the same terms, in the case of `COc1ccc(Cn2ccc3ccc(C(=O)c4nccs4)cc32)cc1` it was 210 µM; in that of `COc1ccc(Cn2ccc3ccc(C(=O)NS(C)(=O)=O)cc32)cc1`, above 1000 µM.
The compound `COc1ccc(Cn2ccc3ccc(C(=O)Nc4ccccc4SC)cc32)cc1` yielded an IC50 of 360 µM.
On the same count and under the same terms, in the case of `COc1ccc(Cn2ccc3ccc(C(=O)N/N=C\c4ccccc4O)cc32)cc1` it was above 1000 µM; in that of `COc1ccc(Cn2ccc3ccc(C(=O)NCCO)cc32)cc1`, 170 µM.
For the compound `COc1ccc(Cn2ccc3ccc(-c4noc(=O)[nH]4)cc32)cc1`, half-maximal inhibition (IC50) required 140 µM.
The same measure, in the same setting: in the case of `COc1ccc(Cn2ccc3ccc(C(=O)Nc4ccccc4N)cc32)cc1` it was 150 µM.
For the compound `COc1ccc(Cn2ccc3ccc(NC(=O)c4ccccn4)cc32)cc1`, the IC50 came out at 490 µM. Compared with the last compound, the IC50 is about 3.3-fold higher.
The same measure, in the same setting: in the case of `COc1ccc(Cn2ccc3ccc(-c4nn[nH]n4)cc32)cc1` it was above 1000 µM.

Test system in the next experiment: not listed separately
Put plainly: Binding affinity to Zinc ion assessed as metal chelating activity at approximately 1 uM.
Regarding `COc1ccc(Cn2ccc3ccc(C(=O)NO)cc32)cc1`, the outcome was Active.

Test system in the next experiment: not listed separately
Put plainly: Binding affinity to Zinc ion assessed as metal chelating activity.
As to `NC(Cc1ccc(Cl)cc1Cl)C(=O)N1Cc2ccccc2C1` (stereo not given), the result was inactive.
